Patent US7767854B2, “N-substituted phenylacetamide derivative and pharmaceutical composition containing the same” (Dainippon Sumitomo Pharma Co., Ltd., priority 2005, dated 2010)
Entries after “also recorded” stand apart in the source; their conditions may differ.

Legend:
[1] = Analgesic effect of prior-art compounds (background statement)
[2] = test system: Slc: Hartley male guinea-pigs; test: Skin sensitization test (Adjuvant and Patch Test, allergenic potency); assay type: in vivo, guinea-pig; conditions: 1% solution patches, FCA pre-treatment, observed 24 and 48 hours after initiation
Procedure: Experiment 3. Skin Sensitization Test (Evaluation of Allergenic Potency)
The purpose of the present experiment is to investigate if each administered compound of the invention may induce allergic contact dermatitis. In detail, the test was carried out using Freund's complete adjuvant (FCA) according to the Adjuvant and Patch Test [Sato, et al., Contact Dermatitis, 7, 225-237 (1981)], which is described in “Description of Guideline on Nonclinical Studies of Drugs (Iyakuhin Hirinshou-shiken Guideline Kaisetsu), Chapter 8, P.72-76, Skin sensitization test” [edited by the Ministry of Health and Welfare, Pharmaceutical Affairs Bureau, Yakuji-Nippou-sha (1997)]. Slc: Hartley male guinea-pigs were used for the test. As a test compound, each the compound of the invention and DNCB (1-chloro-2,4-dinitrobenzene) as a positive control drug were dissolved in 70% ethanol/water solution and were administered to the animals. The 70% ethanol/water solution was used as vehicle solvent (reference).
In detail, after FCA emulsion was intradermally administered around the shaved back part of the guinea-pig as a pre-treatment, each patch containing 1% test compound solution or reference (solvent) solution was closedly attached once a day for consecutive 3 days in total (Primary Sensitization). On 7th day after the Primary Sensitization, 10% sodium lauryl sulfate ointment was openly applied at the same part for 24 hours, and then each patch containing 1% test compound solution or reference (solvent) solution was closedly attached again for 48 hours (Second Sensitization). 14 days after the Second Sensitization treatment, each test compound (maximum concentration: 1%) was applied for 24 hours using patch in the same manner (initiation). 24 and 48 hours after the application, the reaction (erythema, edema) on the applied skin part was observed and was scored (0-3) based on the criteria of Magnusson and Kligman [J. Invest. Dermatol., 52, 268-276 (1969)], and then the degree of skin sensitization induced by each of compound was evaluated.

male Std: Wistar rats = test: Pain test by plantar thermal stimuli (plantar test); assay type: in vivo; conditions: Rattus norvegicus, 4 h, 50 μl of 0.03% (W/V) solution i.pl. into right hind-paw; 4 hours after administration; cut-off 25 seconds; read-out: % MPE (percent maximum possible effect, withdrawal latency)
Procedure: Experiment 1: Pain Test by Plantar Thermal Stimuli (Plantar Test)
In the present experiment, the analgesic effect of the compounds of the invention was evaluated by the measurements of withdrawal latency to noxious thermal stimuli, according to the methods of Hargreaves, et al., [Pain, 32, 77-88 (1988)] and Field, et al., [J. Pharmacol. Exp. Ther., 282, 1242-1246 (1997)].
In detail, the experiment was carried out using male Std: Wistar rats (4 rats/group; body weight, 170-220 g) and a plantar test device (Model 7370, Ugo Basile) with infrared beam as a heat source. The rat was put into an experimental cage that is an acrylic box whose bottom is made of glass and was habituated therein. Then, the infrared beam was radiated to the plantar surface of right hind-paw thereof through the floor glass, and the withdrawal latency was measured every 5 minutes, 3 times. The intension of the infrared beam was adjusted so that the pre-drug administration latency was about 10 seconds. The cut-off time was set at 25 seconds in order to prevent a paw burn. The average of the latencies was calculated, and then it was defined as the value of the pre-drug administration latency of the test compound.
Next day, 50 μl of each solution of the test compounds [the compounds of the invention, the compounds of the comparative Examples and capsaicin (Sigma, U.S.A.)] or 50 μl of vehicle solvent (reference) was given to a right hind-paw of the rat by intraplantar injection (i. pl.) using a micro-syringe. The test compound was dissolved in a saline solution containing 10% Tween 80 (Sigma, U.S.A) and 10% ethanol to give a 0.03% (W/V) solution. The saline solution containing 10% Tween 80 and 10% ethanol was used as reference. Four hours after i.pl. administration of each the test compound or the reference to the rats, the experiment mentioned above was carried out, and then the post-drug administration latency was measured. The analgesic effects thereof were calculated with the following formula, which was known as a percent maximum possible effect (% MPE). % MPE=[(the value of post-drug latency−the value of pre-drug latency)/(25*−the value of pre-drug latency)]×100 *: cut-off time

male Std:ddY mice = test: Study for irritancy (eye-wiping test); assay type: in vivo, mouse
Procedure: Experiment 2: Study for Irritancy (Eye-Wiping Test)
In this experiment, we examined the irritancy of the compounds of the invention. The experiment was carried out according to Jancso, et al., [Acta. Physiol. Acad. Sci. Hung., 19, 113-131 (1961)] and Szallasi, et al., [Brit. J. Pharmacol., 119, 283-290 (1996)]. In more detail, the compounds of the invention were dissolved in a physiological saline solution containing 5% Tween 80 and 5% ethanol to prepare each 2 different concentrations (2 concentrations: 10 and 30 μg/ml). One drop of each the solution was dropped into an eye of male Std:ddY mice (5 […]/group; body weight, 20-30 g). The protective wiping behaviors with its front paws were counted for every one minute from 0 to 5 minutes after the administration. Then, the average counts in each one minute were calculated, and the maximum value among the averages was defined as the representative value. Using the saline solution containing […] and 5% ethanol as a vehicle solvent, the test mentioned above was also carried out.

female CBA/JN mice = test: Skin sensitization test (Local Lymph Node Assay with BrdU); assay type: in vivo, mouse; conditions: 1 and 3% solutions in DMF on both auricles, 3 days
Procedure: Experiment 4: Skin Sensitization Test (Local Lymph Node Assay)
The purpose of the present experiment is to investigate if each administered compound of the invention can induce allergic contact dermatitis. In detail, the skin sensitization effect of the compounds of the invention was examined using BrdU (bromodeoxyuridine) by LLNA (Local Lymph Node Assay).
In more detail, the test was carried out according to the method by Suda, A. et al. (Local lymph node assay with non-radioisotope alternative endpoints. J. Toxicol. Sci., 27(3):205-218, 2002). Namely, the compounds of the invention were dissolved in DMF (N,N-dimethylformamide) to prepare 1 and 3% solutions, which were applied to both auricles of female CBA/JN mice aged 9 weeks for consecutive 3 days (1st day to 3rd day)(25 μl/one-side ear, once a day)
As positive control drugs, DNCB (dinitrochlorobenzene, a potently sensitizing drug) and HCA (α-hexylcinnamaldehyde, a weakly sensitizing drug) were used. After the final application was finished (on 3rd day), ALZET Osmotic Pump containing 100 μl of 200 mg/mL BrdU (releasing rate: 0.5 μl/hour) was implanted into the ventral skin under pentobarbital anesthesia, and BrdU was exposed sustainedly. On 9th day from starting day to apply the compounds of the invention, the animals were euthanized by cervical dislocation, and parotid lymph nodes of both their ears were taken out. The nodes were weighed and homogenized in PBS to prepare a single cell suspension which was measured by a blood test device: ADVIA (Bayer) to count the number of the cells. Next, the cells were immunofluorescently stained with FITC-labeled anti-BrdU antibody using a BrdU Flow Kit (BD Biosciences), which were measured and analyzed using a flow cytometer: FACS Calibur (Becton Dickinson) to give BrdU-positive cell percentage. And then, the BrdU-positive cell percentage was multiplied by the number of the node cells to give the number of the BrdU-positive cells. Additionally, on each parameter, the average value for the test compound group was divided by the average value for the reference (solvent) group to give a stimulation Index (SI). We judged that the compound had skin sensitization activity when the SI of BrdU-positive cell number was 2 or more, in principle.

[3] = cited from earlier work

COc1cc(CC(=O)NC2CCC(C)CC2)ccc1O (stereo not drawn)
analgesic effect [1]: little analgesic effect

CCCCC1=CCC(NC(=O)Cc2ccc(O)c(OC)c2)CC1 (single isomer, unassigned; (+)) [Example 43, (+)-N-(4-butyl-3-cyclohexenyl)-2-(4-hydroxy-3-methoxyphenyl)acetamide]
skin sensitization (erythema, edema score) [2]: no skin sensitization

CCCC=C1CCC(NC(=O)Cc2ccc(O)c(OC)c2)CC1 (single isomer, unassigned; (+)) [Example 45, (+)-N-(4-butylidenecyclohexyl)-2-(4-hydroxy-3-methoxyphenyl)acetamide]
change in vivo at 300 µg/mL (male Std: Wistar rats): 73.9% | skin sensitization (erythema, edema score) [2]: no skin sensitization

CCCCC1=CCC(NC(=O)Cc2ccc(O)c(OC)c2)CC1 (single isomer, unassigned; (-)) [Example 44, (−)-N-(4-butyl-3-cyclohexenyl)-2-(4-hydroxy-3-methoxyphenyl)acetamide]
skin sensitization (erythema, edema score) [2]: no skin sensitization

CCCC=C1CCC(NC(=O)Cc2ccc(O)c(OC)c2)CC1 (single isomer, unassigned; (-)) [Example 46, (−)-N-(4-butylidenecyclohexyl)-2-(4-hydroxy-3-methoxyphenyl)acetamide]
skin sensitization (erythema, edema score) [2]: no skin sensitization

COc1cc(CNC(=O)CCCC/C=C/C(C)C)ccc1O [Capsaicin, (E)-8-methyl-N-vanillyl-6-nonenamide]
change in vivo at 300 µg/mL (male Std: Wistar rats): 39.2% | Representative value of counts of protective wiping behaviors (max. counts, counts/min) (male Std:ddY mice; 10 μg/ml, one drop into eye, 0 to 5 minutes): 20.0 counts/min | irritancy (protective wiping behaviors, in words) (male Std:ddY mice; capsaicin 10 μg/ml, Example compounds up to 30 μg/ml): frequent protective wiping behaviors

CCCCC1=CCC(NC(=O)Cc2ccc(O)c(OC)c2)CC1 (stereo not drawn) [Example 1, N-(4-butyl-3-cyclohexenyl)-2-(4-hydroxy-3-methoxyphenyl)acetamide]
skin sensitization (SI of BrdU-positive cell number) (female CBA/JN mice): weak skin sensitization | change in vivo at 300 µg/mL (male Std: Wistar rats): 69.9% | skin sensitization (erythema, edema score) [2]: no skin sensitization

CCCCC1CCC(NC(=O)Cc2ccc(O)c(OC)c2)CC1 (stereo not drawn) [Example 2, N-(4-butylcyclohexyl)-2-(4-hydroxy-3-methoxyphenyl)acetamide]
skin sensitization (SI of BrdU-positive cell number) (female CBA/JN mice): weak skin sensitization | change in vivo at 300 µg/mL (male Std: Wistar rats): 81.4% | skin sensitization (erythema, edema score) [2]: no skin sensitization

CC/C=C\[C@H]1CC[C@H](NC(=O)Cc2ccc(O)c(OC)c2)CC1 [Example 16]
skin sensitization (SI of BrdU-positive cell number) (female CBA/JN mice): weak skin sensitization | change in vivo at 300 µg/mL (male Std: Wistar rats): 94.1% | skin sensitization (erythema, edema score) [2]: no skin sensitization

C/C=C\[C@H]1CC[C@H](NC(=O)Cc2ccc(O)c(OC)c2)CC1 [Example 22]
skin sensitization (SI of BrdU-positive cell number) (female CBA/JN mice): weak skin sensitization | change in vivo at 300 µg/mL (male Std: Wistar rats): 54.7% | skin sensitization (erythema, edema score) [2]: no skin sensitization

COc1cc(CC(=O)N[C@H]2CC[C@H](CCCC(C)C)CC2)ccc1O [Example 27]
skin sensitization (SI of BrdU-positive cell number) (female CBA/JN mice): weak skin sensitization | change in vivo at 300 µg/mL (male Std: Wistar rats): 89.5% | skin sensitization (erythema, edema score) [2]: no skin sensitization

COc1cc(CC(=O)NC2CCCCC2)ccc1O [drawing 3]
analgesic effect [1]: little analgesic effect | irritancy ([3]; Arzneim.-Forsch., 25, 1877 (1975)): a little lower irritancy than capsaicin | stimulatory effect and desensitization ([3]; Arzneim.-Forsch., 26, 33 (1976)): strong stimulatory; also recorded: weak desensitization
